According to patent US10688099B2, “Methods for modulating the amount of RNA transcripts” (PTC Therapeutics, Inc., priority 2013, dated 2020):

Tested on: RNA isoforms in PNN 1-46 SMA type I patient-derived fibroblasts
Assay: RNA Abundance Modulation (RNA isoform abundance, iFPM, HiSeq RNA sequencing)
Type: cell-based, human
Conditions: 3 μM
Experimental: Cells from a cell line of interest are cultured in conditions sufficient to yield the number of cells capable of generating enough RNA for subsequent sequencing steps. Cells from the tested cell line are contacted with a compound described herein.
To culture said cells, they are seeded, at appropriate concentrations in a volume of media in a cell culture container and incubated for 4, 5, 6, 7, 8, 9, 10, or more hours. A concentrated solution of compound in a vehicle (e.g., DMSO) is then added in sufficient volume to result in the intended final concentration of the compound, for example 100 nM, 500 nM, 1 μM, 5 μM, 10 μM, 15 μM, 20 μM, or more. The cells may also be treated with vehicle alone, as a control. A number of replicates of each concentration or control may be made (e.g., 2 replicates). The cells are then incubated at a constant temperature appropriate for cell culture of the particular cell line (e.g., 37° C.) for 6, 12, 18, 24, 48, or more hours. After incubation, the growth medium is removed and the cells are washed with the appropriate buffer (e.g., PBS). Cells are then removed from adherence to the cell culture container by treatment with a solution containing trypsin, and the trypsin subsequently quenched with the appropriate volume of buffer (e.g., DMEM-FBS). The cells are then pelleted with gentle centrifugation (e.g., ≤90×g centrifugal force) and resuspended in a buffer to lyse the cells for extraction of RNA. The cell lysates may then be frozen (e.g., at −80° C.) or, alternately, may immediately be used in a procedure to purify the RNA (e.g. by use of the RNEASY PLUS® minikit). The RNA from cell lysates is eluted in the appropriate volume of buffer (e.g., RNEASE-FREE H2O®). The resulting purified RNA may then be sequenced (e.g., using RNASeq) or analyzed using a human exon array (e.g., by GENECHIP® human exon array) to determine changes in the RNA levels in those cells treated with compound compared to those cells treated only with DMSO. The purified RNA may also be quantified by other methods known in the art.
Using the RNA data obtained from sequencing, exon array, or other methods, a statistical analysis can reveal changes in the RNA levels of compound-treated compared with control. For example, t-test p-values may be calculated for the data obtained through sequencing and exon array methods in order to compare compound-treated cells to those treated with the DMSO control. […] Analysis of the sequencing and exon array data may then also yield predictions about the cause of the aberrant amount of an RNA transcript in the cells (e.g., perturbation of RNA splicing, RNA transcription, or RNA stability). These predictions may be further confirmed by methods known in the art. For example, RT-PCR and RT-qPCR may be used to confirm the change in amount of RNA transcripts for one or more particular transcripts of interest.
Following the methods described above in Example 1, PNN 1-46 SMA type I patient-derived fibroblasts were treated with 300 nM or 3 μM Compounds 774 and 808 in 0.5% DMSO.
700,000 cells were seeded in 10 mL of medium (DMEM plus 10% FBS) in a T-75 flask. Cells were allowed to attach for at least 4 hrs, after which 50 μL of a 200× compound solution (100% DMSO) was added to each well, and the plate was incubated at 37° C. for 24 hrs.
At the end of the incubation period, the supernatant was removed and the cells where washed with PBS. TrypLE (Invitrogen) express solution was added (e.g. 1.5 mL per one T75 flask). The flasks were incubated for 3 to 5 min at 37° C. The trypsin was then quenched, e.g., by adding 10 mL DMEM-FBS.
Next, the cells were pelleted using gentle centrifugation without exceeding 90×g centrifugal force. The supernatant was removed and the cell pellet was re-suspended in 600 μL RLT buffer (the RLT buffer was supplemented with beta-mercaptoethanol according to the RNeasy protocol manual) by pipetting up and down until the pellet was completely dissolved […]

## CCc1nc(C)cn2nc(-c3cc(=O)n4cc(C5CCN(C)CC5)cc(C)c4n3)cc12 [Compound 774]
TRAPPC12 AK094181
  L2FC (x + 1): 0.288
  L2abs (Cpd-DMSO): 2.20
  abs (Cpd-DMSO): 5 iFPM
  amp FC (x + 1): 1.22
  ave Cpd: 24 iFPM
TRAPPC12 AK098327
  FC (x + 1): 0.0066
  L2FC (x + 1): −7.244
  L2abs (Cpd-DMSO): 7.23
  abs (Cpd-DMSO): 151 iFPM
  amp FC (x + 1): 151.58
  ave Cpd: 0 iFPM
TRAPPC12 NM_016030
  FC (x + 1): 1.2575
  L2FC (x + 1): 0.331
  L2abs (Cpd-DMSO): 7.32
  abs (Cpd-DMSO): 160 iFPM
  amp FC (x + 1): 1.26
  ave Cpd: 781 iFPM
TRIM2 BC025417
  FC (x + 1): 0.7534
  L2FC (x + 1): −0.408
  L2abs (Cpd-DMSO): 0.61
  abs (Cpd-DMSO): 2 iFPM
  amp FC (x + 1): 1.33
  ave Cpd: 4 iFPM
TRIM2 NM_015271
  FC (x + 1): 1.1211
  L2FC (x + 1): 0.165
  L2abs (Cpd-DMSO): 7.65
  abs (Cpd-DMSO): 201 iFPM
  amp FC (x + 1): 1.12
  ave Cpd: 1858 iFPM
TRIM2 NM_001130067
  FC (x + 1): 0.0184
  L2FC (x + 1): −5.763
  L2abs (Cpd-DMSO): 5.74
  abs (Cpd-DMSO): 53 iFPM
  amp FC (x + 1): 54.29
  ave Cpd: 0 iFPM
TRIM65 NM_173547
  FC (x + 1): 1.6613
  L2FC (x + 1): 0.732
  L2abs (Cpd-DMSO): 7.49
  abs (Cpd-DMSO): 179 iFPM
  amp FC (x + 1): 1.66
  ave Cpd: 449 iFPM
TRIM65 NM_001256124
  FC (x + 1): 0.0055
  L2FC (x + 1): −7.514
  L2abs (Cpd-DMSO): 7.51
  abs (Cpd-DMSO): 182 iFPM
  amp FC (x + 1): 182.75
  ave Cpd: 0 iFPM
TSPAN2 GU971730
  FC (x + 1): 0.3567
  L2FC (x + 1): −1.487
  L2abs (Cpd-DMSO): 4.19
  abs (Cpd-DMSO): 18 iFPM
  amp FC (x + 1): 2.80
  ave Cpd: 9 iFPM
TSPAN2 NM_005725
  FC (x + 1): 0.3229
  L2FC (x + 1): −1.631
  L2abs (Cpd-DMSO): 8.17
  abs (Cpd-DMSO): 288 iFPM
  amp FC (x + 1): 3.10
  ave Cpd: 136 iFPM
U2SURP AK057679
  FC (x + 1): 1.1346
  L2FC (x + 1): 0.182
  L2abs (Cpd-DMSO): 4.73
  abs (Cpd-DMSO): 27 iFPM
  amp FC (x + 1): 1.13
  ave Cpd: 223 iFPM
U2SURP AK296440
  FC (x + 1): 0.9747
  L2FC (x + 1): −0.037
  L2abs (Cpd-DMSO): 2.77
  abs (Cpd-DMSO): 7 iFPM
  amp FC (x + 1): 1.03
  ave Cpd: 261 iFPM
U2SURP BC006474
  FC (x + 1): 0.9155
  L2FC (x + 1): −0.127
  L2abs (Cpd-DMSO): 6.85
  abs (Cpd-DMSO): 115 iFPM
